Results taken from patent US20210116454A1, “METHODS FOR TREATING A HEMATOLOGICAL CANCER AND THE USE OF COMPANION BIOMARKERS FOR 2-(2,6-DIOXOPIPERIDIN-3-YL)-4-((2-FLUORO-4-((3-MORPHOLINOAZETIDIN-1-YL)METHYL)BENZYL)AMINO)ISOINDOLINE-1,3-DIONE” (CELGENE CORPORATION, priority 2019, published 2021).
Read-outs that look alike come from different tables or passages of the source.

Tests used:
Farage = assay: 5-day viable cell number and apoptosis (7-AAD exclusion/Annexin V flow cytometry); type: cell-based; settings: Farage cells (Table 3); read-out: IC50
From the text: (§1) The DLBCL panel includes seven cell lines classified as activated B-cell (ABC) subtype, thirteen cell lines classified as the germinal center B-cell (GCB) subtype, and three cell lines classified as primary mediastinal B-cell lymphoma (PMBL). […] The translocation of MYC, BCL6, or BCL2 to an IG locus usually leads to high levels of mRNA and protein due to the active transcription driven by a constitutively active IG promoter. […] Expressions of CRBN protein and known substrates, Ikaros, Aiolos, and ZFP91 were also evaluated (FIG. 1, panels B and C).
(§2) The panel of cell lines were treated with increasing doses of compounds for five days, at which time the number of viable cells was measured and the amount of apoptosis was determined by 7-AAD exclusion and Annexin V staining using flow cytometry.

KARPAS-422 = assay: as above; type: cell-based; settings: Homo sapiens; KARPAS-422 cells (Table 3); read-out: IC50
From the text: as §1, §2

SU-DHL-4 [1] = assay: as above; type: cell-based; settings: Homo sapiens; SU-DHL-4 cells (Table 3); read-out: IC50
From the text: as §1, §2

SU-DHL-10 = assay: as above; type: cell-based; settings: Homo sapiens, SU-DHL10; SU-DHL-10 cells (Table 3); read-out: IC50
From the text: as §1, §2

KARPAS-1106P = assay: as above; type: cell-based; settings: Homo sapiens; KARPAS-1106P cells (Table 3); read-out: IC50
From the text: as §1, §2

OCI-LY-7 = assay: as above; type: cell-based; settings: Homo sapiens, OCI-Ly7; OCI-LY-7 cells (Table 3); read-out: IC50
From the text: as §1, §2

OCI-Ly10 = assay: as above; type: cell-based; settings: Homo sapiens; OCI-Ly10 cells (Table 3); read-out: IC50
From the text: as §1, §2

SU-DHL-16 = assay: as above; type: cell-based; settings: Homo sapiens; SU-DHL-16 cells (Table 3); read-out: IC50
From the text: as §1, §2

HT = assay: as above; type: cell-based; settings: Homo sapiens; HT cells (Table 3); read-out: IC50
From the text: as §1, §2

SU-DHL-2 = assay: as above; type: cell-based; settings: Homo sapiens; SU-DHL-2 cells (Table 3); read-out: IC50
From the text: as §1, §2

Pfeiffer = assay: as above; type: cell-based; settings: Homo sapiens; Pfeiffer cells (Table 3)
From the text: as §1, §2

DB = assay: as above; type: cell-based; settings: Homo sapiens; DB cells (Table 3)
From the text: as §1, §2

RIVA = assay: as above; type: cell-based; settings: RIVA cells (Table 3); read-out: IC50
From the text: as §1, §2

WSU-DLCL2 = assay: as above; type: cell-based; settings: Homo sapiens, WSUDLCL2; WSU-DLCL2 cells (Table 3); read-out: IC50
From the text: as §1, §2

U2932 = assay: as above; type: cell-based; settings: Homo sapiens; U2932 cells (Table 3); read-out: IC50
From the text: as §1, §2

RC-K8 = assay: as above; type: cell-based; settings: Homo sapiens, RCK8; RC-K8 cells (Table 3); read-out: IC50
From the text: as §1, §2

SU-DHL-8 = assay: as above; type: cell-based; settings: Homo sapiens; SU-DHL-8 cells (Table 3); read-out: IC50
From the text: as §1, §2

SU-DHL-4 [2] = assay: CellTiter-Glo (CTG) antiproliferative assay, 5-day; type: cell-based; settings: for antiproliferative activity (in words): SU-DHL-4, CellTiter-Glo
Procedure: To evaluate the activity of both Compound 1 and Compound 2 in DLBCL cells, a CellTiter-Glo (CTG) assay was performed to measure the antiproliferative activity.

cereblon (CRBN) = cereblon (CRBN) (Homo sapiens, UniProt Q96SW2); assay: Cereblon binding TR-FRET ligand competition assay; settings: 10 to 20 minutes, n=5
Procedure: To investigate whether Compound 1 and its R-enantiomer Compound 2 could bind to cereblon, a short duration (10 to 20 minutes) ligand competition assay was used.

ZFP91 = target: T1, ZFP91 (Homo sapiens, UniProt Q96JP5+Q96SW2); assay: ePL-tagged substrate degradation kinetics in DF15 cells (enantiomer comparison); type: cell-based; design: ZFP91 Y-constant: scale not given here; settings: for DC50: read-out: ZFP91 EC50
T1 construct: expressed in transfected cells; host or cells: DF15 cells
Procedure: (§3) In a second assay, DF15 cell lines expressing ePL-tagged target protein substrates were used as a model system to monitor protein degradation at 0.75, 1, 1.5, 3, 4, and 24 hours over a concentration range from 1 pM to 10 μM. The proteins evaluated were Ikaros (FIG. 17), Aiolos, and ZFP91. Compound 1 and Compound 2 were both able to degrade the substrate proteins at all time points (Table 9). In a further assay, additional time points were included to monitor the effect of treatment with Compound 1 and Compound 2.
(§4) The depth of substrate protein degradation described by the Y-constant was also measured in this assay against a negative control luciferase inhibitor (CC1071297, Y-constant=0).

Aiolos = target: T2, Aiolos (Homo sapiens, UniProt Q96SW2+Q9UKT9); assay: as above; type: cell-based; design: Aiolos Y-constant: scale not given here; settings: for DC50: read-out: Aiolos EC50
T2 construct: expressed in transfected cells; host or cells: DF15 cells
Procedure: as §3, §4

Ikaros = Ikaros (Homo sapiens, UniProt Q13422+Q96SW2); assay: as above; type: cell-based; design: expressed in transfected cells; host or cells: DF15 cells; Ikaros Y-constant: scale not given here; settings: for DC50: read-out: Ikaros EC50
Procedure: as §3, §4

SU-DHL-2 cells = assay: Western blot of substrate degradation by each enantiomer, short time-course; type: cell-based; settings: SU-DHL-2, higher concentrations and longer exposure
Procedure: Pure samples of each enantiomer were tested for cellular degradation of substrate proteins measured over a short time-course (FIG. 16). SU-DHL-2 cells were treated for 1, 2, and 6 hours with vehicle control (0.1% DMSO), Compound 1 (1, 10, 100 nM), or Compound 2 (1, 10, 100 nM). Western blot analysis was used to evaluate the extent of degradation of the protein substrates Aiolos, Ikaros, and ZFP91. Compound 1 inhibited Aiolos, Ikaros, and ZFP91 in as early as 1 hour of treatment with as little as 1 nM.

In the case of `CC1(C)CCC(CN2CCN(c3ccc(C(=O)NS(=O)(=O)c4ccc(NCC5CCOCC5)c([N+](=O)[O-])c4)c(Oc4cnc5[nH]ccc5c4)c3)CC2)=C(c2ccc(Cl)cc2)C1` [Venetoclax, 4-(4-{[2-(4-chlorophenyl)-4,4-dimethylcyclohex-1-en-1-yl]methyl}piperazin-1-yl)-N-({3-nitro-4-[(tetrahydro-2H-pyran-4ylmethyl)amino]phenyl}sulfonyl)-2-(1H-pyrrolo[2,3-b]pyridin-5-yloxy)benzamide, reference compound], the IC50 (Farage) is reported as 560 µM, the IC50 (KARPAS-422) is reported as 75 µM and the IC50 (SU-DHL-4 [1]) is reported as 145 µM. It also gave an IC50 (SU-DHL-10) of 454 µM, an IC50 (KARPAS-1106P) of 200 µM and an IC50 (OCI-LY-7) of 1010 µM. The IC50 (OCI-Ly10) was 200 µM, the IC50 (SU-DHL-16) was 21 µM and the IC50 (HT) was 644 µM. For the same molecule, the IC50 (SU-DHL-2) was 355 µM, the IC50 (Pfeiffer) was 432 µM and the IC50 (DB) was 82 µM. For the same molecule, the IC50 (RIVA) was 5 µM, the IC50 (WSU-DLCL2) was 215 µM and the IC50 (U2932) was 230 µM. For the same molecule, the IC50 (RC-K8) was 609 µM and the IC50 (SU-DHL-8) was 548 µM.
In the case of `O=C1CCC(N2C(=O)c3cccc(NCc4ccc(CN5CC(N6CCOCC6)C5)cc4F)c3C2=O)C(=O)N1` (racemic) [Compound 3, 2-(2,6-Dioxopiperidin-3-yl)-4-((2-fluoro-4-((3-morpholinoazetidin-1-yl)methyl)benzyl)amino)isoindoline-1,3-dione], the “antiproliferative activity (in words)” value (SU-DHL-4 [2]) is reported as “Potent antiproliferative activity”.
For `O=C1CC[C@@H](N2C(=O)c3cccc(NCc4ccc(CN5CC(N6CCOCC6)C5)cc4F)c3C2=O)C(=O)N1` [Compound 2, (R)-2-(2,6-dioxopiperidin-3-yl)-4-((2-fluoro-4-((3-morpholinoazetidin-1-yl)methyl)benzyl)amino)isoindoline-1,3-dione], the IC50 (cereblon (CRBN)) was 10.2 ± 1 µM, the “ZFP91 Y-constant” value (ZFP91; 0.75 hours) was 41 and the DC50 (ZFP91; 0.75 hours) was 0.029 µM. For the same molecule, the “ZFP91 Y-constant” value (ZFP91; 1 hour) was 22, the DC50 (ZFP91; 1 hour) was 0.025 µM and the “ZFP91 Y-constant” value (ZFP91; 1.5 hours) was 10. For the same molecule, the DC50 (ZFP91; 1.5 hours) was 0.016 µM, the “ZFP91 Y-constant” value (ZFP91; 3 hours) was 4.6 and the DC50 (ZFP91; 3 hours) was 0.0045 µM. The “ZFP91 Y-constant” value (ZFP91; 4 hours) was 4.1, the DC50 (ZFP91; 4 hours) was 0.0026 µM and the “ZFP91 Y-constant” value (ZFP91; 24 hours) was 2.5. The DC50 (ZFP91; 24 hours) was 0.00035 µM, the “Aiolos Y-constant” value (Aiolos; 0.75 hours) was 54 and the DC50 (Aiolos; 0.75 hours) was 0.038 µM. The “Aiolos Y-constant” value (Aiolos; 1 hour) was 37, the DC50 (Aiolos; 1 hour) was 0.024 µM and the “Aiolos Y-constant” value (Aiolos; 1.5 hours) was 15. The DC50 (Aiolos; 1.5 hours) was 0.017 µM, the “Aiolos Y-constant” value (Aiolos; 3 hours) was 3.5 and the DC50 (Aiolos; 3 hours) was 0.01 µM. For the same molecule, the “Aiolos Y-constant” value (Aiolos; 4 hours) was 3.5, the DC50 (Aiolos; 4 hours) was 0.0073 µM and the “Aiolos Y-constant” value (Aiolos; 24 hours) was 3.8. The DC50 (Aiolos; 24 hours) was 0.0053 µM, the “Ikaros Y-constant” value (Ikaros; 0.75 hours) was 47.0 and the DC50 (Ikaros; 0.75 hours) was 0.0397 µM. The “Ikaros Y-constant” value (Ikaros; 1 hour) was 34.4, the DC50 (Ikaros; 1 hour) was 0.027 µM and the “Ikaros Y-constant” value (Ikaros; 1.5 hours) was 15.3. The DC50 (Ikaros; 1.5 hours) was 0.0225 µM, the “Ikaros Y-constant” value (Ikaros; 3 hours) was 7.3 and the DC50 (Ikaros; 3 hours) was 0.00888 µM. For the same molecule, the “Ikaros Y-constant” value (Ikaros; 4 hours) was 5.5, the DC50 (Ikaros; 4 hours) was 0.00731 µM and the “Ikaros Y-constant” value (Ikaros; 24 hours) was 2.4. The DC50 (Ikaros; 24 hours) was 0.0007 µM, the “expression of Aiolos, Ikaros, and ZFP91” value (SU-DHL-2 cells) was “decreased expression” and the IC50 (SU-DHL-4 [2]; Homo sapiens, 120 h, SU-DHL-4, 5-day assay, n = 6) was 0.032 µM. For the same molecule, the “antiproliferative activity (in words)” value (SU-DHL-4 [2]) was “Potent antiproliferative activity”.
